Assay results published in publication PMC12797170, “Potent Competitive Inhibitors of Ecto-5′-nucleotidase (CD73) based on 6‑(Het)aryl-7-deazapurine Ribonucleoside 5′‑O‑Bisphosphonates” (ACS Pharmacology & Translational Science, 2025).
Read-outs that look alike come from different tables or passages of the source.

Key:
[1] = target: T1, recombinant human CD73 (hCD73) (Homo sapiens, UniProt P21589); test: CD73 activity assay on recombinant human CD73; format: biochemical; conditions: ΔGexp = RT ln Ki
T1 sequence (P21589 27-574): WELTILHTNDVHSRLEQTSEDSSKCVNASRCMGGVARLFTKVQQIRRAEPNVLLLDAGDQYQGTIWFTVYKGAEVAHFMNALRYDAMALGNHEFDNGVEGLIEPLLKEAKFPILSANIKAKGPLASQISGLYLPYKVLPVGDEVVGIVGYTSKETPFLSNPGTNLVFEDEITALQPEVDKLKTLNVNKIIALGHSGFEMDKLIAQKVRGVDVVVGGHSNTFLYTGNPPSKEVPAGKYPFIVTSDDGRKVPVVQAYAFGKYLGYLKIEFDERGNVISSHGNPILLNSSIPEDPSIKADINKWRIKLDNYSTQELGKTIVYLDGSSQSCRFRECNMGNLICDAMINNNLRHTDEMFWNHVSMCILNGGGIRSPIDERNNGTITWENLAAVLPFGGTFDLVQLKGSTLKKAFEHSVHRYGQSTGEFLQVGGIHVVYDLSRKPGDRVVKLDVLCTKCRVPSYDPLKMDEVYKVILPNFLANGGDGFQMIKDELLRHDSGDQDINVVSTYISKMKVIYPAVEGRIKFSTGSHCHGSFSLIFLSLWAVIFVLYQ

[2] = In vivo pharmacokinetic study, intravenous; set-up: species or system male CD-1 mice; conditions: for half-life / clearance: plasma, 1 mg/kg; for half-life: footnote: t1/2 stability in plasma, text: half-life in mouse PK; for unbound plasma exposure relative to mouse CD73 Ki: mouse PK, unbound via mouse PPB, all time points
Summary of the method: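 Single intravenous dose in male CD-1 mice (n=3, 9 weeks, 29.2–33.7 g). Plasma levels measured by LC-MS/MS at 5, 15, 30, 60, 120, 240 and 480 min.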

hERG potassium channel = hERG potassium channel (Homo sapiens, UniProt Q12809); test: hERG inhibition assay (thallium flux, HEK293-hERG cells); format: cell-based; conditions: for inhibition of hERG: at 100 μM
Description: The study was performed by Bienta (Enamine Biology Services). HEK293-hERG cells (stably expressing human potassium channel hERG – human Ether-a-go-go Related Gene) were cultured in DMEM/F-12 medium supplemented with 10% FBS, 100 U/mL penicillin, 100 μg/mL streptomycin, and 500 μg/mL G418. The assay was performed according to the manufacturer’s instructions. Cells were seeded into a 384-well poly-D-lysine, clear-bottom microtiter plate (8000 cells/well) in DMEM/F-12 medium supplemented with 5% FBS, 100 U/mL penicillin, 100 μg/mL streptomycin 24 h prior to assay. After 24 h of cell growth, the conditioned medium was substituted with the Dye Loading Solution comprising thallium-sensitive dye, followed by incubation for 1 h in a CO2 incubator. After the incubation, the Dye Loading Solution was substituted with a 15 μL/well mixture of the Assay Buffer and the TRS. Then, 5 μL of the test compound diluted in the assay buffer (0.5% DMSO final concentration) was added to each well of the plate and incubated at room temperature for 30 min hERG inhibition by test compounds was assessed at 3 concentrations of 10–50–100 μM. All test points were performed in quadruplicates. […] DMSO was used as a negative control, and Haloperidol was used as a reference compound to verify the assay validity. Haloperidol was dissolved in 100% DMSO at a concentration of 20 mM and stored at – 20 °C (for no more than a month). Haloperidol was assessed at the final concentrations ranging from 0.023 μM to 50.0 μM (8 points, 3-fold serial dilutions). The test compounds were dissolved in 100% DMSO at a concentration of 20 mM.

[3] = system: MDA-MB-231 breast cancer cell line; test: CellTox Green cytotoxicity assay; format: cell-based, human; conditions: 24 h
Description: MDA-MB-231 cells were harvested and counted using an automated cell counter. A total of 2,500 cells per well were seeded in 20 μL of phenol red-free complete RPMI medium into black 384-well plates. Five μL of CD73 inhibitors (final concentration: […]) or 5 μL PBS (negative control) were added to each well, except for wells designed as maximal signal (dead cell) controls. Plates were incubated for 24 h at 37 °C in a humidified CO2 incubator. To generate the maximum signal control, 5 μL of lysis buffer (CellTox Green Cytotoxicity Assay, Promega) was added to the dead cell controls, followed by a 30 min incubation at room temperature. Subsequently, 25 μL/well of CellTox Green Dye (diluted 1:500 in the assay buffer; Promega) was added. Plates were incubated in the dark on an orbital shaker at 500–700 rpm for 15 min. Fluorescence was measured using an Infinite M1000 plate reader (Tecan) with excitation at 485–500 nm and emission at 520–530 nm. Data were analyzed in GraphPad Prism 10.
Figure S2: Effect of CD73 inhibition on the viability of CD73-expressing breast cancer cell line. MDA-MB-231 cells were incubated with 10 µM CD73 inhibitors for 24 hours. Viability was assessed using the CellTox™ Green Cytotoxicity Assay.
± s.d. of technical triplicates (s.d., standard deviation).
(1 picture or pasted object on this page, not shown here)

[4] = system: panel of CYP isoforms (1A2, 2C9, 2C19, 2D6, and 3A4); test: CYP450 inhibition, panel statement; format: biochemical, human; conditions: up to 50 μM
Description: The study was performed by Bienta (Enamine Biology Services). The potential for CYP450 inhibition (isoforms 1A2, 2C9, 2C19, 2D6, and 3A4) was assessed by performing in vitro inhibition studies using fluorogenic CYP450 substrates with the corresponding CYP450 enzymes and NADPH regeneration system (Vivid CYP450 Screening Kits) with some minor changes to the manufacturer’s protocols. The fluorescent signal produced from the reaction is directly proportional to the cytochrome P450 activity. In the cases when tested compounds interfere with the CYP450 enzyme–substrate reaction, the fluorescent signal decreases.
Briefly, the tested compounds were first dissolved in DMSO at 100× concentration (1 mM) and diluted in buffer to 2.5× concentration (25 μM). […] After 10 min of preincubation, the enzymatic reaction was initiated by the addition of a mix of NADPH and the appropriate CYP450 substrates. The plate was incubated for the desired reaction time (25 min for CYP1A2, CYP2C9, CYP2D6, and CYP3A4; 60 min for CYP2C19) after which Stop Reagent was added and fluorescence measured using SpectraMax Paradigm Multi-Mode Microplate Reader. All test points were performed in quadruplicates at a concentration of 10 μM (1% DMSO).

[5] = male, CD-1, mouse, iv, intravenous
[6] = mouse, male CD-1 mice, intravenous, single dose, read-out: Cl (obs), observed clearance
[7] = male, CD-1, mouse, intravenous, in vivo PK in mice, unit inferred, read-out: clearance

Sequence of hERG potassium channel (Q12809 whole entry): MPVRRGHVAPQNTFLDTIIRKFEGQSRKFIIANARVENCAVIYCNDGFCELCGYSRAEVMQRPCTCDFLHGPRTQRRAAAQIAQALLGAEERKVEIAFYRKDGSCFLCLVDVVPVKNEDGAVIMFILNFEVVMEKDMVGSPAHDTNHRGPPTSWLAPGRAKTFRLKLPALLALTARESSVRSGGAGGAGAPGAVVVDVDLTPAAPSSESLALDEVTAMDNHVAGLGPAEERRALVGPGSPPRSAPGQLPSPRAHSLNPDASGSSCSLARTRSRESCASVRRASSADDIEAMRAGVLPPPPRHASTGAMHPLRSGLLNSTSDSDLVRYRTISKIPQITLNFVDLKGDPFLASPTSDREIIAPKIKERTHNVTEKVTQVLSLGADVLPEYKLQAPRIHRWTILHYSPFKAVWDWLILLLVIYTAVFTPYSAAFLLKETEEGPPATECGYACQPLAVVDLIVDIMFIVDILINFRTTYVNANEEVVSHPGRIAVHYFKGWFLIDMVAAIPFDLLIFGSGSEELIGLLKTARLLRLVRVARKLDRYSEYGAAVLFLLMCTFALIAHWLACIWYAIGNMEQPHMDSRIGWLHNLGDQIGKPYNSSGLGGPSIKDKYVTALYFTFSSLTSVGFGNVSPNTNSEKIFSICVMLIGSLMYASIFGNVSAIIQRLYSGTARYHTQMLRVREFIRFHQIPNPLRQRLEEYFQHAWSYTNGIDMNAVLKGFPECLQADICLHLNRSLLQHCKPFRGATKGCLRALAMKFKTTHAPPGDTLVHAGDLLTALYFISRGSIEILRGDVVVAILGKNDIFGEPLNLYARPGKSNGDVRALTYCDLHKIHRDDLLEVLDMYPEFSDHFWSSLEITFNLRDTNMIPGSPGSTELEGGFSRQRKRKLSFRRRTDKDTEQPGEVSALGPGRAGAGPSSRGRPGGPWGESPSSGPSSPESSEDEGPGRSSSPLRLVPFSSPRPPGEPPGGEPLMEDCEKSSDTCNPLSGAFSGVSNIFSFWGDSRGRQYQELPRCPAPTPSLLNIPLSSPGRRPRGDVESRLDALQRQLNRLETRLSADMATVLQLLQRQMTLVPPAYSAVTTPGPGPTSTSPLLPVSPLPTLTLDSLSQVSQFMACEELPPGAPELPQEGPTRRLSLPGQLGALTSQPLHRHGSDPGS

| dG_exp, experimental binding free energy [1] | half-life [2, 5] [h] | clearance [2, 6] [mL/min/kg] | inhibition of a panel of CYP isoforms [4] | unbound plasma exposure relative to mouse CD73 Ki [2] | clearance [2, 7] [mL/min/kg] | clearance ([2]; male, CD-1, mouse, iv, in vivo PK in mice, unit inferred, read-out: clearance) [mL/min/kg] | SMILES | hERG % inhibition at 100 µM (hERG potassium channel) [%] | inhibition of hERG (hERG potassium channel) | in vitro cytotoxicity against MDA-MB-231 [3] |
| --- | --- | --- | --- | --- | --- | --- | --- | --- | --- | --- |
| –16.3 kcal/mol | 2.23 | 3 | no inhibition | – | – | – | O=P(O)(O)CP(=O)(O)OC[C@H]1O[C@@H](n2ccc3c(-c4ccc5c(c4)CCCC5)nc(Cl)nc32)[C@H](O)[C@@H]1O [7B.23] | 5 | no inhibition | nontoxic |
| –16.6 kcal/mol | 1.8 | 1.7 | no inhibition | well above | – | – | O=P(O)(O)CP(=O)(O)OC[C@H]1O[C@@H](n2ccc3c(-c4ccc(F)c5ccccc45)nc(Cl)nc32)[C@H](O)[C@@H]1O [7B.28] | 6 | no inhibition | nontoxic |
| –14.1 kcal/mol | – | – | no inhibition | – | – | – | O=P(O)(O)CP(=O)(O)OC[C@H]1O[C@@H](n2ccc3c(-c4cccc5ccncc45)ncnc32)[C@H](O)[C@@H]1O [4A.18] | 6 | no inhibition | nontoxic |
| –15.9 kcal/mol | 2.33 | 0.88 | no inhibition | – | – | – | O=P(O)(O)CP(=O)(O)OC[C@H]1O[C@@H](n2ccc3c(-c4cccc5c4CCCC5)nc(Cl)nc32)[C@H](O)[C@@H]1O [7B.12] | 3 | no inhibition | nontoxic |
| –16.1 kcal/mol | 3.08 | 3.1 | no inhibition | – | 3.1 | – | O=P(O)(O)CP(=O)(O)OC[C@H]1O[C@@H](n2ccc3c(-c4ccc5c(c4)CCCC5)nc(I)nc32)[C@H](O)[C@@H]1O [27H.23, [(5-{[2-Iodo-4-(5,6,7,8-tetrahydronaphthalen-2-yl)-7H-pyrrolo[2,3-d]pyrimidin-7-yl]-β-D-ribofuranosyl}oxy)phosphonomethyl]phosphonic Acid] | 7 | no inhibition | nontoxic |
| –13.9 kcal/mol | 5.27 | 0.32 | no inhibition | well above | 0.32 | – | Cc1nc(-c2cccc3ccccc23)c2ccn([C@@H]3O[C@H](COP(=O)(O)CP(=O)(O)O)[C@@H](O)[C@H]3O)c2n1 [18E.6] | 2 | no inhibition | nontoxic |
| –13.4 kcal/mol | 4.2 | – | no inhibition | – | – | 4.1 | O=P(O)(O)CP(=O)(O)OC[C@H]1O[C@@H](n2ccc3c(-c4ccc5ccccc5c4)ncnc32)[C@H](O)[C@@H]1O [4A.7] | 1 | no inhibition | nontoxic |
| –14.6 kcal/mol | 1.73 | 4.6 | – | – | – | – | Cc1nc(-c2ccc3ccccc3c2)c2ccn([C@@H]3O[C@H](COP(=O)(O)CP(=O)(O)O)[C@@H](O)[C@H]3O)c2n1 [18E.7] | – | – | nontoxic |
